Source: patent US20260262643A1, “HERBICIDAL BENZOXAZINES” (FMC CORPORATION, priority 2022, published 2026)

Tests used:
[1] = system: barnyardgrass; experiment: Test C preemergence; format: in vivo, Echinochloa crusgalli; details: 0 to 100 scale (0 no effect, 100 complete control)
Procedure, shortened: (§1)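 Visual injury ratings on a 0–100 scale (100 = complete control) were made against untreated controls 10 days after treatment in the greenhouse. Compounds, formulated with surfactant in non-phytotoxic solvent, were sprayed on soil preemergence or onto one- to two-leaf plants 2–10 cm tall postemergence.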

[2] = system: blackgrass; experiment: Test C preemergence; format: in vivo, Alopecurus myosuroides; details: 0 to 100 scale (0 no effect, 100 complete control)
Procedure, shortened: as §1

[3] = system: corn; experiment: Test C preemergence; format: in vivo, Zea mays; details: preemergence, 0 to 100 scale (0 no effect, 100 complete control)
Procedure, shortened: as §1

[4] = system: green foxtail; experiment: Test C preemergence; format: in vivo, Setaria viridis; details: preemergence, 0 to 100 scale (0 no effect, 100 complete control)
Procedure, shortened: as §1

[5] = system: kochia; experiment: Test C preemergence; format: in vivo, Bassia scoparia; details: preemergence, 0 to 100 scale (0 no effect, 100 complete control)
Procedure, shortened: as §1

[6] = system: oat, wild; experiment: Test C preemergence; format: in vivo, Avena fatua; details: preemergence, 0 to 100 scale (0 no effect, 100 complete control)
Procedure, shortened: as §1

[7] = system: pigweed, palmer; experiment: Test C preemergence; format: in vivo, Amaranthus palmeri; details: preemergence, 0 to 100 scale (0 no effect, 100 complete control)
Procedure, shortened: as §1

[8] = system: ragweed; experiment: Test C preemergence; format: in vivo, Ambrosia artemisiifolia; details: preemergence, 0 to 100 scale (0 no effect, 100 complete control)
Procedure, shortened: as §1

[9] = system: ryegrass, Italian; experiment: Test C preemergence; format: in vivo, Lolium multiflorum; details: preemergence, 0 to 100 scale (0 no effect, 100 complete control)
Procedure, shortened: as §1

[10] = system: soybean; experiment: Test C preemergence; format: in vivo, Glycine max; details: preemergence, 0 to 100 scale (0 no effect, 100 complete control)
Procedure, shortened: as §1

[11] = system: wheat; experiment: Test C preemergence; format: in vivo, Triticum aestivum; details: preemergence, 0 to 100 scale (0 no effect, 100 complete control)
Procedure, shortened: as §1

[12] = system: barnyardgrass; experiment: Test C postemergence; format: in vivo, Echinochloa crusgalli; details: 10 days
Procedure, shortened: as §1

[13] = system: blackgrass; experiment: Test C postemergence; format: in vivo, Alopecurus myosuroides; details: 10 days
Procedure, shortened: as §1

[14] = system: corn; experiment: Test C postemergence; format: in vivo, Zea mays; details: 10 days
Procedure, shortened: as §1

[15] = system: green foxtail; experiment: Test C postemergence; format: in vivo, Setaria viridis; details: 10 days
Procedure, shortened: as §1

[16] = system: kochia; experiment: Test C postemergence; format: in vivo, Bassia scoparia; details: 125 g ai/ha, postemergence, 10 days; 0 to 100 scale, 0 no effect, 100 complete control
Procedure, shortened: as §1

[17] = system: oat, wild; experiment: Test C postemergence; format: in vivo, Avena fatua; details: 125 g ai/ha, postemergence, 10 days; 0 to 100 scale, 0 no effect, 100 complete control
Procedure, shortened: as §1

[18] = system: pigweed, palmer; experiment: Test C postemergence; format: in vivo, Amaranthus palmeri; details: 125 g ai/ha, postemergence, 10 days; 0 to 100 scale, 0 no effect, 100 complete control
Procedure, shortened: as §1

[19] = system: ragweed; experiment: Test C postemergence; format: in vivo, Ambrosia artemisiifolia; details: 125 g ai/ha, postemergence, 10 days; 0 to 100 scale, 0 no effect, 100 complete control
Procedure, shortened: as §1

[20] = system: ryegrass, Italian; experiment: Test C postemergence; format: in vivo, Lolium multiflorum; details: 125 g ai/ha, postemergence, 10 days; 0 to 100 scale, 0 no effect, 100 complete control
Procedure, shortened: as §1

[21] = system: soybean; experiment: Test C postemergence; format: in vivo, Glycine max; details: 125 g ai/ha, postemergence, 10 days; 0 to 100 scale, 0 no effect, 100 complete control
Procedure, shortened: as §1

[22] = system: wheat; experiment: Test C postemergence; format: in vivo, Triticum aestivum; details: 125 g ai/ha, postemergence, 10 days; 0 to 100 scale, 0 no effect, 100 complete control
Procedure, shortened: as §1

[23] = system: galium; experiment: Test C postemergence; format: in vivo, Galium aparine; details: 10 days
Procedure, shortened: as §1

[24] = system: horseweed; experiment: Test C postemergence; format: in vivo, Erigeron canadensis; details: 10 days
Procedure, shortened: as §1

[25] = system: barnyardgrass; experiment: Test D flooded paddy test; format: in vivo, Echinochloa crus-galli; details: 250 g ai/ha, applied to paddy water, visual rating after 13 to 14 days, scale 0 to 100 (0 no effect, 100 complete control)
Procedure, shortened: (§2)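 Visual ratings from 0, meaning no effect, to 100, meaning complete control, were assigned against untreated controls 13 to 14 days after compounds were added to the floodwater of pots kept 3 cm deep, with plants at the 2-leaf stage.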

[26] = system: ducksalad; experiment: Test D flooded paddy test; format: in vivo, Heteranthera limosa; details: 250 g ai/ha, applied to paddy water, visual rating after 13 to 14 days, scale 0 to 100 (0 no effect, 100 complete control)
Procedure, shortened: as §2

[27] = system: rice; experiment: Test D flooded paddy test; format: in vivo, Oryza sativa; details: 250 g ai/ha, applied to paddy water, visual rating after 13 to 14 days, scale 0 to 100 (0 no effect, 100 complete control)
Procedure, shortened: as §2

[28] = system: sedge, umbrella; experiment: Test D flooded paddy test; format: in vivo, Cyperus difformis; details: 250 g ai/ha, applied to paddy water, visual rating after 13 to 14 days, scale 0 to 100 (0 no effect, 100 complete control)
Procedure, shortened: as §2

[29] = Preemergence, 500 g ai/ha, visual rating after 10 days
[30] = Test C, preemergence, 125 g ai/ha
[31] = 125 g ai/ha, postemergence, 0 to 100 scale, 0 no effect, 100 complete control
[32] = Postemergence, 500 g ai/ha, visual 0 to 100 scale (0 no effect, 100 complete control)

## COC[C@H]1CN(C(=O)c2cc(-n3cnc(C(C)(C)O)n3)ccc2C)c2cccc(Cl)c2O1 [Compound 276]
[1]; [29]
  Plant response rating, Barnyardgrass: 100
[1]; [30]
  Barnyardgrass plant response rating: 90
[2]; [29]
  Plant response rating, Blackgrass: 90
[2]; [30]
  Blackgrass plant response rating: 90
[3]; 500 g ai/ha
  Corn plant response rating: 90
[3]; Test C, 125 g ai/ha
  Corn plant response rating: 50
[4]; 500 g ai/ha
  Foxtail, Green plant response rating: 100
[4]; Test C, 125 g ai/ha
  Foxtail, Green plant response rating: 100
[5]; 500 g ai/ha
  Kochia plant response rating: 90
[5]; Test C, 125 g ai/ha
  Kochia plant response rating: 90
[6]; 500 g ai/ha
  Oat, Wild plant response rating: 90
[6]; Test C, 125 g ai/ha
  Oat, Wild plant response rating: 80
[7]; 500 g ai/ha
  Pigweed, Palmer plant response rating: 100
[7]; Test C, 125 g ai/ha
  Pigweed, Palmer plant response rating: 100
[8]; 500 g ai/ha
  Ragweed plant response rating: 80
[8]; Test C, 125 g ai/ha
  Ragweed plant response rating: 60
[9]; 500 g ai/ha
  Ryegrass, Italian plant response rating: 90
[9]; Test C, 125 g ai/ha
  Ryegrass, Italian plant response rating: 90
[10]; 500 g ai/ha
  Soybean plant response rating: 100
[10]; Test C, 125 g ai/ha
  Soybean plant response rating: 100
[11]; 500 g ai/ha
  Wheat plant response rating: 90
[11]; Test C, 125 g ai/ha
  Wheat plant response rating: 80
[12]; [31]
  Plant response rating, Barnyardgrass: 30
[12]; [32]
  Plant response rating, Barnyardgrass: 90
[13]; [31]
  Plant response rating, Blackgrass: 60
[13]; [32]
  Plant response rating, Blackgrass: 90
[14]; [31]
  Plant response rating, Corn: 50
[14]; [32]
  Plant response rating, Corn: 90
[15]; [31]
  Plant response rating, Foxtail, Green: 40
[15]; [32]
  Plant response rating, Foxtail, Green: 90
[16]
  Plant response rating, Kochia: 70
[17]
  Plant response rating, Oat, Wild: 80
[18]
  Plant response rating, Pigweed, Palmer: 60
[19]
  Plant response rating, Ragweed: 60
[20]
  Plant response rating, Ryegrass, Italian: 80
[21]
  Plant response rating, Soybean: 100
[22]
  Plant response rating, Wheat: 60
[23]; [31]
  Plant response rating, Galium: 100
[23]; [32]
  Plant response rating, Galium: 100
[24]; [31]
  Plant response rating, Horseweed: 50
[24]; [32]
  Plant response rating, Horseweed: 40
[25]
  Plant response rating, Barnyardgrass (Flood): 35
[26]
  Plant response rating, Ducksalad (Flood): 70
[27]
  Plant response rating, Rice (Flood): 20
[28]
  Plant response rating, Sedge, Umbrella (Flood): 80
